Laboratory results from PubChem BioAssay AID248 (DTP/NCI, 2004).
“And” between values parts separate entries of the source, which are not always exact repeats. Equal values may be shown once. Inconclusive results and toxic doses are left out. No stated cut-off is given here; in the data, active means T/C of 150% or more; inactive means T/C below 125%.

Test system: L1210 leukemia ip in BDF1 mice, survival T/C
Assay: NCI In Vivo Anticancer Drug Screen. Data for tumor model L1210 Leukemia (intraperitoneal) in B6D2F1 (BDF1) mice
Conditions: endpoint: mean survival time, higher = longer survival
Outline: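 Value reflects the ratio of survival in compound-treated mice to survival in vehicle-treated controls, with both groups carrying the same transplanted tumor.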

[1] = dose: 100.0 mg/kg/injection, schedule: Q04DX002 (ip), vehicle: saline
[2] = dose: 200.0 mg/kg/injection, schedule: Q04DX002 (ip), vehicle: saline
[3] = dose: 400.0 mg/kg/injection, schedule: Q04DX002 (ip), vehicle: saline
[4] = dose: 100.0 mg/kg/injection, schedule: Q01DX009 (ip), vehicle: Klucel (hydroxypropylcellulose) (HPC)
[5] = dose: 200.0 mg/kg/injection, schedule: Q01DX009 (ip), vehicle: Klucel (hydroxypropylcellulose) (HPC)
[6] = dose: 100.0 mg/kg/injection, schedule: Q01DX009 (ip), vehicle: saline
[7] = dose: 200.0 mg/kg/injection, schedule: Q01DX009 (ip), vehicle: saline
[8] = dose: 400.0 mg/kg/injection, schedule: Q01DX009 (ip), vehicle: saline

Measured: T/C

CCCCCCCCOP(=O)(OCCCCCCCC)c1ccccc1
inactive: dose: 10.0 mg/kg/injection, schedule: Q01DX001 (ip), vehicle: acetone 91 % of control | dose: 10.0 mg/kg/injection, schedule: Q04DX003 (ip), vehicle: acetone 97 % of control | dose: 12.5 mg/kg/injection, schedule: Q01DX009 (ip), vehicle: saline 94 % of control | dose: 20.0 mg/kg/injection, schedule: Q01DX001 (ip), vehicle: acetone 91 % of control | dose: 20.0 mg/kg/injection, schedule: Q04DX003 (ip), vehicle: acetone 92 % of control | dose: 25.0 mg/kg/injection, schedule: Q01DX009 (ip), vehicle: saline 94 % of control | dose: 40.0 mg/kg/injection, schedule: Q01DX001 (ip), vehicle: acetone 86 % of control | dose: 40.0 mg/kg/injection, schedule: Q04DX003 (ip), vehicle: acetone 97 % of control | dose: 50.0 mg/kg/injection, schedule: Q01DX009 (ip), vehicle: saline 94 % of control | dose: 75.0 mg/kg/injection, schedule: Q01DX009 (ip), vehicle: saline 112 % of control | dose: 115.0 mg/kg/injection, schedule: Q01DX009 (ip), vehicle: saline 106 % of control | dose: 170.0 mg/kg/injection, schedule: Q01DX009 (ip), vehicle: saline 98 % of control

CCOCCOCCOCCOc1ccc2c(c1)OCO2
inactive: [1] 95 % of control | [2] 88 % of control | [3] 107 % of control

CCOC(=O)C(CC(=O)O)=C1c2ccccc2-c2ccccc21
inactive: dose: 100.0 mg/kg/injection, schedule: Q01DX001 (ip), vehicle: Klucel (hydroxypropylcellulose) (HPC) 100 % of control | [4] 95 % of control and 102 % of control | dose: 100.0 mg/kg/injection, schedule: Q04DX002 (ip), vehicle: Klucel (hydroxypropylcellulose) (HPC) 95 % of control and 102 % of control | dose: 200.0 mg/kg/injection, schedule: Q01DX001 (ip), vehicle: Klucel (hydroxypropylcellulose) (HPC) 94 % of control | [5] 95 % of control and 96 % of control | dose: 200.0 mg/kg/injection, schedule: Q04DX002 (ip), vehicle: Klucel (hydroxypropylcellulose) (HPC) 96 % of control and 98 % of control

CN1C2CCC1CNC2
inactive: [6] 101 % of control | [7] 96 % of control | [8] 90 % of control

O=C(Nc1cc([N+](=O)[O-])ccc1F)Oc1ccc2ccccc2c1
inactive: [6] 111 % of control | [7] 95 % of control | [8] 106 % of control

CC(C)SCC(NC(=O)/C=C/c1ccccc1)C(=O)O (stereo not given)
inactive: dose: 50.0 mg/kg/injection, schedule: Q04DX003 (ip), vehicle: other 97 % of control | dose: 100.0 mg/kg/injection, schedule: Q04DX003 (ip), vehicle: other 101 % of control | dose: 200.0 mg/kg/injection, schedule: Q04DX003 (ip), vehicle: other 95 % of control

O=C(O)CCc1ccncc1
inactive: [1] 100 % of control | [2] 122 % of control | [3] 103 % of control

Cc1ccc(N2C(=O)ON(c3ccccc3)C2c2ccccc2)cc1 (stereo not given)
inactive: dose: 50.0 mg/kg/injection, schedule: Q01DX001 (ip), vehicle: saline 100 % of control | dose: 100.0 mg/kg/injection, schedule: Q01DX001 (ip), vehicle: saline 102 % of control | dose: 200.0 mg/kg/injection, schedule: Q01DX001 (ip), vehicle: saline 106 % of control | dose: 400.0 mg/kg/injection, schedule: Q01DX001 (ip), vehicle: saline 108 % of control

COc1ccccc1NS(=O)(=O)c1ccc(Cl)cc1
inactive: [4] 103 % of control | [5] 112 % of control | dose: 400.0 mg/kg/injection, schedule: Q01DX009 (ip), vehicle: Klucel (hydroxypropylcellulose) (HPC) 103 % of control
